Experiments:
Format in all cases: physicochemical
[1] = Thermal decomposition temperature (TG/DTA, 2% weight reduction); details: point of 2% weight reduction; 10° C./minute from 30° C. to 500° C.; nitrogen atmosphere
Method: The synthesized photoacid generator was measured for the change in weight under a temperature increasing condition of 10° C./minute from 30° C. to 500° C. under a nitrogen atmosphere using a thermal gravimetric/differential thermal analyzer (TG/DTA 6200, available from Seiko Instruments Inc.), and a point where the weight was reduced by 2% was defined as the thermal decomposition temperature.

[2] = Molar extinction coefficient of i-line (365 nm), UV-visible absorbance in acetonitrile; details: 0.25 mmol/L in acetonitrile, cell length 1 cm
Method: The synthesized photoacid generator was diluted to 0.25 mmol/L with acetonitrile, and using an ultraviolet-visible spectrophotometer (UV-2550 available from SHIMADZU CORPORATION), the absorbance in a range of 200 nm to 500 nm was measured with a cell having an optical path length (a cell length) of 1 cm. The molar extinction coefficient of i-line (365 nm) (ε365) was calculated from the following equation.
[In the equation, […] represents the absorbance at 365 nm.]

[3] = Solvent solubility (butyl acetate, toluene or PGMEA); details: 25° C.
Method: In a test tube, 0.1 g of the synthesized photoacid generator was placed, and an organic solvent (butyl acetate, toluene or PGMEA) was added thereto in 0.2 g portions under a condition where the temperature was adjusted to 25° C. until the photoacid generator was completely dissolved. In this connection, in the case where the photoacid generator was not completely dissolved even when 20 g of the solvent was added, the photoacid generator was evaluated as one that was not dissolved.

SMILES | Thermal decomposition temperature [1] | Molar extinction coefficient [2] | Solvent solubility PGMEA [3] | Solvent solubility Butyl acetate [3] | Solvent solubility Toluene [3]
C[Si](C)(C)c1ccc2c3c(cccc13)C(=O)N(OS(=O)(=O)C(F)(F)F)C2=O [Example A-18, 4-trimethylsilyl-1,8-naphthalimide trifluoromethanesulfonate] | 240 °C | 5500 L/mol/cm | 8 wt % | 7.5 wt % | 9 wt %
O=C1c2cccc3c(Cl)ccc(c23)C(=O)N1OS(=O)(=O)C(F)(F)F [Example A-19, 4-chloro-1,8-naphthalimide trifluoromethanesulfonate] | 220 °C | 6000 L/mol/cm | 6 wt % | 5 wt % | 10 wt %
O=C1c2cccc3c(Br)ccc(c23)C(=O)N1OS(=O)(=O)C(F)(F)F [Example A-20, 4-bromo-1,8-naphthalimide trifluoromethanesulfonate] | 230 °C | 8500 L/mol/cm | 4 wt % | 4.5 wt % | 8 wt %
CC(C)Oc1ccc2c3c(cccc13)C(=O)N(OS(=O)(=O)c1c(F)c(F)c(F)c(F)c1F)C2=O [Example A-21, 4-isopropoxy-1,8-naphthalimide pentafluorobenzenesulfonate] | 236 °C | 16300 L/mol/cm | 4.5 wt % | 4 wt % | 3.5 wt %
CCCOc1ccc2c3c(cccc13)C(=O)N(OS(=O)(=O)c1c(F)c(F)c(F)c(F)c1F)C2=O [Example A-22, 4-n-propoxy-1,8-naphthalimide pentafluorobenzenesulfonate] | 240 °C | 14000 L/mol/cm | 3 wt % | 3.5 wt % | 6 wt %
O=C1c2cccc3c(OCC(F)(F)C(F)F)ccc(c23)C(=O)N1OS(=O)(=O)c1c(F)c(F)c(F)c(F)c1F [Example A-23, 4-(2,2,3,3-tetrafluoro-1-propoxy)-1,8-naphthalimide pentafluorobenzenesulfonate] | 232 °C | 12000 L/mol/cm | 7 wt % | 7.5 wt % | 10 wt %
O=C(Cc1ccccc1)c1ccc2c3c(cccc13)C(=O)N(OS(=O)(=O)c1c(F)c(F)c(F)c(F)c1F)C2=O [Example A-24, 4-phenylacetyl-1,8-naphthalimide pentafluorobenzenesulfonate] | 242 °C | 3000 L/mol/cm | 3.2 wt % | 3.5 wt % | 5.5 wt %
O=C1c2cccc3c(Oc4c(F)c(F)c(F)c(F)c4F)ccc(c23)C(=O)N1OS(=O)(=O)c1c(F)c(F)c(F)c(F)c1F [Example A-25, 4-pentafluorophenoxy-1,8-naphthalimide pentafluorobenzenesulfonate] | 247 °C | 12000 L/mol/cm | 11 wt % | 14 wt % | 13 wt %
O=C1c2cccc3c(Oc4cccc(C(F)(F)F)c4)ccc(c23)C(=O)N1OS(=O)(=O)c1c(F)c(F)c(F)c(F)c1F [Example A-26, 4-(3-trifluoromethylphenoxy)-1,8-naphthalimide pentafluorobenzenesulfonate] | 241 °C | 16000 L/mol/cm | 9 wt % | 11 wt % | 10 wt %
O=C1c2cccc3c(Sc4ccccc4)ccc(c23)C(=O)N1OS(=O)(=O)c1c(F)c(F)c(F)c(F)c1F [Example A-27, 4-phenylthio-1,8-naphthalimide pentafluorobenzenesulfonate] | 242 °C | 20000 L/mol/cm | 4 wt % | 5.5 wt % | 5.5 wt %
COc1cc2c3c(cccc3c1)C(=O)N(OS(=O)(=O)c1c(F)c(F)c(F)c(F)c1F)C2=O [Example A-28, 3-methoxy-1,8-naphthalimide pentafluorobenzenesulfonate] | 240 °C | 7500 L/mol/cm | 5 wt % | 6.5 wt % | 6 wt %
CCCCC(CC)C(=O)Oc1cc2c3c(cccc3c1)C(=O)N(OS(=O)(=O)c1c(F)c(F)c(F)c(F)c1F)C2=O (stereo not shown) [Example A-29, 3-(2-ethylhexanoyloxy)-1,8-naphthalimide pentafluorobenzenesulfonate] | 230 °C | 1500 L/mol/cm | 18 wt % | 25 wt % | 23 wt %
CCCC(=O)Oc1cc2c3c(cccc3c1)C(=O)N(OS(=O)(=O)c1c(F)c(F)c(F)c(F)c1F)C2=O [Example A-30, 3-butyroyloxy-1,8-naphthalimide pentafluorobenzenesulfonate] | 235 °C | 1600 L/mol/cm | 14 wt % | 18 wt % | 20 wt %
O=C(Oc1cc2c3c(cccc3c1)C(=O)N(OS(=O)(=O)c1c(F)c(F)c(F)c(F)c1F)C2=O)c1ccccc1 [Example A-31, 3-benzoyloxy-1,8-naphthalimide pentafluorobenzenesulfonate] | 243 °C | 1400 L/mol/cm | 16 wt % | 20 wt % | 18 wt %
O=C(Oc1cc2c3c(cccc3c1)C(=O)N(OS(=O)(=O)c1c(F)c(F)c(F)c(F)c1F)C2=O)c1c(F)c(F)c(F)c(F)c1F [Example A-32, 3-pentafluorobenzoyloxy-1,8-naphthalimide pentafluorobenzenesulfonate] | 244 °C | 1300 L/mol/cm | 19 wt % | 24 wt % | 22 wt %
CC(C)(C)c1cc2c3c(cc(C(C)(C)C)cc3c1)C(=O)N(OS(=O)(=O)c1c(F)c(F)c(F)c(F)c1F)C2=O [Example A-33, 3,6-di-tert-butyl-1,8-naphthalimide pentafluorobenzenesulfonate] | 245 °C | 6500 L/mol/cm | 6 wt % | 6.5 wt % | 6 wt %
CC(C)(C)Cc1cc2c3c(cc(CC(C)(C)C)cc3c1)C(=O)N(OS(=O)(=O)c1c(F)c(F)c(F)c(F)c1F)C2=O [Example A-34, 3,6-dineopentyl-1,8-naphthalimide pentafluorobenzenesulfonate] | 250 °C | 6200 L/mol/cm | 11 wt % | 14 wt % | 8 wt %
O=C1c2cc(C34CC5CC(CC(C5)C3)C4)cc3cc(C45CC6CC(CC(C6)C4)C5)cc(c23)C(=O)N1OS(=O)(=O)c1c(F)c(F)c(F)c(F)c1F [Example A-35, 3,6-diadamantyl-1,8-naphthalimide pentafluorobenzenesulfonate] | 251 °C | 6000 L/mol/cm | 5.5 wt % | 6 wt % | 9 wt %
O=C1c2cccc3c(C(F)(F)C(F)(F)C(F)(F)C(F)(F)F)ccc(c23)C(=O)N1OS(=O)(=O)c1c(F)c(F)c(F)c(F)c1F [Example A-36, 4-(nonafluorobutyl)-1,8-naphthalimide pentafluorobenzenesulfonate] | 239 °C | 40 L/mol/cm | 13 wt % | 14 wt % | 11 wt %
O=C1c2cccc3c(C(F)(F)C(F)(F)C(F)(F)C(F)(F)C(F)(F)C(F)(F)C(F)(F)C(F)(F)F)ccc(c23)C(=O)N1OS(=O)(=O)c1c(F)c(F)c(F)c(F)c1F [Example A-37, 4-(heptadecafluoro-n-octyl)-1,8-naphthalimide pentafluorobenzenesulfonate] | 244 °C | 80 L/mol/cm | 23 wt % | 25 wt % | 28 wt %

Reference: patent publication US20160368879A1, “PHOTOACID GENERATOR, AND RESIN COMPOSITION FOR PHOTOLITHOGRAPHY” (SAN-APRO LTD., priority 2013, published 2016)
